Assays:
MDA-MB-468 cells = assay: Cell cycle analysis; assay type: cell-based, human; conditions: after 48 hours
[1] = tested on: MDA-MB-468 orthotopic xenografts; assay: MDA-MB-468 orthotopic xenografts; assay type: in vivo, mouse; conditions: 40 mg/kg daily, IP
Protocol: (§1) Female NOD.CB17-Prkdc^scid/J mice, 6-8 weeks old, were obtained from Jackson Laboratories. All animals were provided with food ad libitum for the duration for the duration of the experiment. The animals were allocated randomly for induction with MDA-MB-231 or MDA-MB-468 tumors and tumor group was assigned blindly. 500,000 MDA-MB-231 or MDA-MB-468 cells were injected into the 4th mammary fat pad of each mouse. After 30 days, the tumors were palpable, and the mice were pooled by tumor type and divided randomly to two groups, which were assigned blindly to vehicle or NCT-503 treatment. […] Caliper measurements were obtained twice weekly and tumor volumes were calculated with the modified ellipsoid formula: volume=0.5×width^2×length.
For quantitation of necrotic regions, fixed tumors were embedded and sections stained with hematoxylin and eosin. Slides were scanned with a Leica Aperio AT2 brightfield scanner. Tumor and necrotic cross-sectional regions were manually delineated and measured using Leica ImageScope software to calculate the percentage of necrosis.

[2] = Body weight of treated xenograft mice; assay type: in vivo, mouse; conditions: 24-day treatment
Protocol: as §1

PHGDH = PHGDH (Homo sapiens (Human), UniProt O43175); assay: Inhibitor kinetics: competition against substrates and dilution experiments; assay type: biochemical; conditions: Lineweaver-Burk
Sequence of PHGDH (O43175 whole entry): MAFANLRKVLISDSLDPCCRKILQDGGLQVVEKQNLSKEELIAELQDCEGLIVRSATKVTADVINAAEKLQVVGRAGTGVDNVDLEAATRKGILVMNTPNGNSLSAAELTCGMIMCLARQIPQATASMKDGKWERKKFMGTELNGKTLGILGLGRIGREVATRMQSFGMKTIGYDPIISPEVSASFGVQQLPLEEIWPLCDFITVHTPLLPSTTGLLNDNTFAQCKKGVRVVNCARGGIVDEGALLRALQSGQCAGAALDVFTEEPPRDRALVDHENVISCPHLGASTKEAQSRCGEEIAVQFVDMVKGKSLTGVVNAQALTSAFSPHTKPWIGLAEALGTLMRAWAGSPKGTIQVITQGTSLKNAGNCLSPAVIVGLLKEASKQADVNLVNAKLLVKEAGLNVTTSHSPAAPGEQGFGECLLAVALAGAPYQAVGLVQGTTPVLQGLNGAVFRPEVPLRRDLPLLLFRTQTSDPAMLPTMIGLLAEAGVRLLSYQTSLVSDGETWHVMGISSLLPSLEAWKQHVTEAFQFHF
Excerpt: Destabilization has been previously observed in the specific binding of small molecules to their protein targets (see, e.g., Hamiaux, C. et al. “DAD2 is an α/β hydrolase likely to be involved in the perception of the plant branching hormone, strigolactone.” Curr Biol 22, 2032-2036 (2012)).

GAPDH = GAPDH (Homo sapiens (Human), UniProt P04406); assay: Counter-screen against GAPDH; assay type: biochemical; conditions: Table E11
Sequence of GAPDH (P04406 whole entry): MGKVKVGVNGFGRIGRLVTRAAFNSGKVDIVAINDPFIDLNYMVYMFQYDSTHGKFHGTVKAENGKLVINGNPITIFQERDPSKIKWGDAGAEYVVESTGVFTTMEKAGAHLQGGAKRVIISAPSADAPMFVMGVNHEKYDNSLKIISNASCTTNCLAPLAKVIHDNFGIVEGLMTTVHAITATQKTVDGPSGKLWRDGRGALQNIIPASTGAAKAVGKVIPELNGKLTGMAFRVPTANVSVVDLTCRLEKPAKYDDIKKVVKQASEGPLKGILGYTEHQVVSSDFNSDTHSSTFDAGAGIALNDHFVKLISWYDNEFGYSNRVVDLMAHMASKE
Protocol: GAPDH substrate buffer contained 210 mM Tris pH 7.4, 2.5 mM NaH2PO4 pH 7.4, 2 mM DL-Glyceraldehyde 3-phosphate, 1.75 mM MgCl2, 0.01 mM NAD+, 0.11 mM resazurin, 0.2 mg/mL BSA, and 0.01% Tween-20. GAPDH enzyme buffer contained 50 mM Tris pH 7.4, 100 mM NaCl, 0.02 mM TCEP, 0.01 mM EDTA, 0.1 mg/mL BSA, 0.42 mg/mL diaphorase, and 2.5 nM GAPDH. The GAPDH, GPD1, and GPD1L assays were run in 384-well plates using the same protocol and readout as the PHGDH assay. […] GPD1 enzyme buffer contained 50 mM Tris pH 7.4, 100 mM NaCl, 0.08 mM TCEP, 0.4 mg/mL BSA, 0.03 μM EDTA, and 0.8 nM GPD1. 70 μL of substrate buffer were mixed with 10 μL enzyme buffer. GPD1L substrate buffer contained 200 mM Tris pH 7.4, 0.05 mM sn-G3-P, 2 mM MgCl2, 0.04 mM NAD+, 0.11 mM resazurin, 0.1 mg/mL BSA, and 0.02% Tween-20. GPD1L enzyme buffer contained 50 mM Tris pH 7.4, 100 mM NaCl, 0.02 mM TCEP, 0.42 mg/mL diaphorase, 0.1 mg/mL BSA, 0.008 μM EDTA, and 16 nM GPD1L. 40 μL of substrate buffer were mixed with 40 μL of enzyme buffer.
The GAPDH and GPD1L assays were read using the same protocol as the PHGDH assay. The GPD1 assay was read using loss of NADH fluorescence (λex=340 nm and λem=460 nm).

MDA-MB-468 tumors = assay: U-13C-glucose infusion in mice bearing MDA-MB-468 tumors (target engagement); assay type: in vivo, mouse
Protocol: Thus, the PHGDH inhibitors described herein engage PHGDH in tumors and recapitulate the selective toxicity of PHGDH knockdown in vivo.
Chronic catheters were surgically implanted into the jugular veins of normal or tumor bearing animals 3-4 days prior to infusions. Animals were fasted for 6 hours (morning fast) and infusions were performed in free-moving, conscious animals at 1:00 pm for all studies to minimize metabolic changes associated with circadian rhythm. […] Animals were terminally anesthetized with sodium pentobarbital and all tissues were fully harvested in less than 5 minutes to preserve the metabolic state. Tumors and adjacent lung tissue were carefully dissected and rapidly frozen using a BioSqueezer (BioSpec Products) to ensure rapid quenching of metabolism throughout the tissue section. Tissues were stored at −80 C and extracted with 80:20 (v/v) methanol:water in the same manner as cells prior to LCMS analysis.

[3] = tested on: PHGDH-dependent cell lines (MDA-MB-468, BT-20, HCC70, HT1080, and MT-3); assay: Cytotoxicity (Cell Titer-Glo), PHGDH-dependent cell lines; assay type: cell-based; conditions: Homo sapiens
Protocol: Knockdown of PHGDH is selectively toxic towards PHGDH-dependent cell lines, and minimally toxic towards PHGDH-independent cell lines. […] Cell count was determined by quantitating the amount of ATP present with CellTitreGlo® measurements 96 hours after dosage.
Cells were seeded in white 96-well plates (Greiner) at a density of 2000 cells/well (MDA-MB-468, BT-20, MT-3) or 1000 cells/well (all other cell lines) and allowed to attach for 24 hours. Compounds were prepared in DMSO and dispensed using an HP D300 compound dispenser. Cell viability was assessed with Cell Titer-Glo (Promega) at four days following treatment and luminescence measured with a SpectraMax M5 Plate Reader (Molecular Devices). Luminescence was normalized to an untreated control in identical medium. For rescue experiments, RPMI was supplemented with 40 μM adenosine, uridine, guanosine, cytidine, deoxyadenosine, thymidine, deoxyguanosine, and deoxycytidine and the medium was replaced daily.

Cc1cc(C)nc(NC(=S)N2CCN(Cc3ccc(C(F)(F)F)cc3)CC2)c1 [Compound 267, N-(4,6-dimethylpyridin-2-yl)-4-(4-(trifluoromethyl)benzyl)piperazine-1-carbothioamide]
cell cycle effect (MDA-MB-468 cells): G1/S arrest
fraction of necrosis [1]: increases the fraction of necrosis
growth and weight of xenografts [1]: reduced the growth and weight
body weight of mice [2]: did not lose weight
type of inhibition with respect to 3-PG (PHGDH): mixed-mode inhibition
type of inhibition with respect to NAD+ (PHGDH): non-competitive inhibition
IC50 (GAPDH): ≥ 100 µM
production of glucose-derived serine in tumors (MDA-MB-468 tumors): decreased production
EC50 [3]: 8 to 16 µM
